Reference: publication PMC9821961, “Ring-Modified Histidine-Containing Cationic Short Peptides Exhibit Anticryptococcal Activity by Cellular Disruption” (Molecules, 2022)

What was measured:
[1] = tested on: C. krusei; experiment: microbe, parasite or virus in culture; assay type: cell-based, Candida krusei; settings: 48 h
Procedure, shortened: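 Growth inhibition was measured by broth microdilution. MIC and IC50 were calculated from optical density at 600 nm after 48 h at 30 °C for Candida and Cryptococcus (10^3 CFU/mL, RPMI 1640 or YPED) and after 24 h at 37 °C for the Gram-positive bacteria (10^5 CFU/mL, Mueller Hinton).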

[2] = tested on: C. neoformans cells; experiment: Internal cell morphology analysis by TEM (HRTEM, STEM); assay type: cell-based, Cryptococcus neoformans; settings: at MIC, 12 h
Protocol: The samples were prepared in a similar manner to as mentioned in the procedure for SEM sample preparation, up until the dehydration of cells with increasing gradients of ethanol. The dehydrated samples were then embedded in resin which was prepared from an epoxy embedding medium kit (Sigma, 45359-1EA-F). Increasing gradients (10%, 20%, 30%, 50%, 70% and 90%) of resin were added to the samples followed by incubation for 1–2 h at room temperature after addition of each gradient. Undiluted resin (100%) was added to the sample and incubated for 24 h at 70 °C. Semi-thin and ultrathin sections were cut with an ultramicrotome (Ultramicotome Lecia EM UC6). The sections of samples were placed on a 3.05 mm diameter and 200 mesh copper grid and stained with uranyl acetate or lead acetate, before observation under the HRTEM (FEI Technai G2 F20, Eindhoven, The Netherlands) and analysis at 120 KV.

SMILES: COC(=O)[C@H](Cc1ncn(Cc2ccccc2I)c1I)NC(=O)[C@@H](N)Cc1c[nH]c2ccccc12 [10o, Trp-His[1-(2-iodobenzyl)-5-iodo]-OMe]
- IC50 [1]: >35.2 µg/mL
- MIC [1]: >64.0 µg/mL
- Internal morphology of treated cells (HRTEM) [2]: cell membrane was completely damaged
- Morphology of treated cells (STEM) [2]: highly deformed and shrunken

SMILES: COC(=O)[C@H](Cc1ncn(Cc2cc(C(C)(C)C)cc(C(C)(C)C)c2)c1I)NC(=O)[C@@H](N)Cc1c[nH]c2ccccc12 [10d, Trp-His[1-(3,5-di-tert-butylbenzyl)-5-iodo]-OMe]
- IC50 [1]: >35.2 µg/mL
- MIC [1]: >64.0 µg/mL
- Internal morphology of treated cells (HRTEM) [2]: complete lysis of the cell membrane
- Morphology of treated cells (STEM) [2]: highly shrunken cells with irregular cell membranes
